Measured values as given in patent publication US20130005811A1, “ANTIMICROBIAL TREATMENT FOR SEEDS AND SPROUTS” (priority 2010, published 2013).
Marks after values point to notes of the source that are not given here.

Test system: S. typhimurium DT 104
Assay: Inactivation of S. typhimurium DT 104 on alfalfa seeds inoculated with 10^8 CFU/g
Format: cell-based, Salmonella typhimurium DT104
Description: Five isolates of Escherichia coli O157:H7, including strain 932 (human isolate), E009 (beef isolate), E0018 (cattle isolate), E0122 (cattle isolate), E0139 (deer jerky isolate); and five isolates of Salmonella typhimurium DT104, including strain H2662 (cattle isolate), 11942A (cattle isolate), 13068A (cattle isolate), 152N17-1 (dairy isolate) and H3279 (human isolate) were used. Nalidixic acid-resistant (50 μg/ml) E. coli O157:H7 were used to facilitate enumeration. Each E. coli O157:H7 and Salmonella strain was grown in tryptic soy broth (TSB, Beckon Dickinson, Sparks, Md.) at 37° C. for 18 hr. Approximately equal cell numbers of each of the five strains were combined and used as a 5-strain mixture with cell numbers being adjusted by spectrophotometric (Spectronic Instruments, Rochester, N.Y.) determination as described in Zhao et al., (2009) J. Food Prot. 72: 928-936, incorporated herein by reference in its entirety. Bacterial cell numbers were confirmed by plating 0.1 ml of serial dilutions (1:10) in 0.1% peptone on tryptic soy agar (TSA, Beckon Dickinson) and Sorbitol MacConkey agar (SMA, Oxoid, Hampshire, UK) for E. coli O157:H7, and TSA and XLD agar (Beckon Dickinson) for Salmonella and incubating all plates at 37° C. for 24 hr, after which colonies were counted.
Levulinic acid (0.5%) and 0.05% sodium dodecyl sulfate (SDS) obtained from Sigma-Aldrich (St. Louis, Mo.) were tested in combination at 21±2° C. for their antimicrobial activity to E. coli O157:H7 and S. typhimurium on alfalfa seeds as a wash treatment. Calcium hypochlorite (Arch Chemicals, Smyrna, Ga.) at 20,000 μg/ml (ppm) was used as the positive control, and deionized water was used as the negative control.
Before each trial, 25 ml of sterile tap water and 25 g of alfalfa seeds were added to a WHIRL-PAK® bag (Nasco, Fort Atkinson, Wis.) and pummeled in a stomacher blender at 150 rpm for 1 min. Duplicate 0.1 ml portions of the contents were plated on SMA, XLD, and TSA plates to detect E. coli O157:H7 and Salmonella, and enumerate aerobic bacteria counts according to the protocols described below. Only E. coli O157:H7-negative and Salmonella-negative alfalfa seeds were used. Dry seeds (50 g) were individually placed in a sterilized glass beaker (1 L) and 5 ml of a mixture of E. coli O157:H7 or S. typhimurium DT 104 (high inocula at 10^8-10^9 CFU/ml and low inocula at 10^3-10^4 CFU/ml) was inoculated on the surface of the seeds in each glass beaker under a laminar flow hood. A sterile plastic spoon was used to mix for 2 min the seeds with bacterial suspension. The glass beakers were held in a laminar flow hood for 1 hr, 4 hr, 24 hr, 48 hr, and 72 hr with intermittent mixing by plastic spoon before use for chemical treatment.
Inactivation of E. coli O157:H7 and Salmonella on Alfalfa Seeds: Inoculated, dried alfalfa seeds (50 g samples) were placed in a 1000 ml glass beaker containing 200 ml of treatment solution and agitated by a magnetic stir bar at 150 ppm at 21° C. for 0, 1, 2, 5, 10, 20, 30, and 60 min. Following treatment, 25 g of seeds was placed in a stomacher bag containing 25 ml 0.1M phosphate buffer, pH 7.2 (PBS) for levulinic acid plus SDS-treated seeds or neutralizing buffer (50×) for calcium hypochlorite-treated seeds and pummeled for 1 min. at 150 rpm in a stomacher blender (Seward, Ltd., Worthing, England). The suspension was serially (1:10) diluted in 0.1% peptone water and 0.1 ml of each dilution was surface-plated in duplicate onto TSA and Sorbitol MacConkey agar containing 50 μg nalidixic acid/ml (TSA-NA and SMA-NA) for E. coli O157:H7, and on TSA and XLD containing ampicillin (32 μg/ml), tetracycline (16 μg/ml) and streptomycin (64 μg/ml) (TSA+ and XLD+) for S. typhimurium DT 104. All plates were incubated at 37° C. for 48 hr.

[Ca+2].[O-]Cl.[O-]Cl [20,000 ppm, Ca(OCl)2, pH 11.4, Calcium hypochlorite]
S. typhimurium DT 104 counts in seeds (dried for 4 hr, treated for 0 min (actual time 0 delayed by 20 to 30 seconds)): +^b (below the minimum detection level by direct plating (<0.7 log CFU/ml), but positive by enrichment culture.) | S. typhimurium DT 104 counts in seeds (dried for 4 hr, treated for 1 min): −^c | S. typhimurium DT 104 counts in seeds (dried for 4 hr, treated for 2 min): − | S. typhimurium DT 104 counts in seeds (dried for 4 hr, treated for 5 min): − | S. typhimurium DT 104 counts in seeds (dried for 4 hr, treated for 10 min): − | S. typhimurium DT 104 counts in seeds (dried for 4 hr, treated for 20 min): − | S. typhimurium DT 104 counts in seeds (dried for 4 hr, treated for 30 min): − | S. typhimurium DT 104 counts in seeds (dried for 4 hr, treated for 60 min): − | S. typhimurium DT 104 counts in seeds (dried for 24 hr, treated for 0 min): + (below the minimum detection level by direct plating (<0.7 log CFU/ml), but positive by enrichment culture.) | S. typhimurium DT 104 counts in seeds (dried for 24 hr, treated for 1 min): + (below the minimum detection level by direct plating (<0.7 log CFU/ml), but positive by enrichment culture.) | S. typhimurium DT 104 counts in seeds (dried for 24 hr, treated for 2 min): − | S. typhimurium DT 104 counts in seeds (dried for 24 hr, treated for 5 min): − | S. typhimurium DT 104 counts in seeds (dried for 24 hr, treated for 10 min): − | S. typhimurium DT 104 counts in seeds (dried for 24 hr, treated for 20 min): − | S. typhimurium DT 104 counts in seeds (dried for 24 hr, treated for 30 min): − | S. typhimurium DT 104 counts in seeds (dried for 24 hr, treated for 60 min): − | S. typhimurium DT 104 counts in seeds (dried for 48 hr, treated for 0 min): + (below the minimum detection level by direct plating (<0.7 log CFU/ml), but positive by enrichment culture.) | S. typhimurium DT 104 counts in seeds (dried for 48 hr, treated for 1 min): + (below the minimum detection level by direct plating (<0.7 log CFU/ml), but positive by enrichment culture.) | S. typhimurium DT 104 counts in seeds (dried for 48 hr, treated for 2 min): − | S. typhimurium DT 104 counts in seeds (dried for 48 hr, treated for 5 min): − | S. typhimurium DT 104 counts in seeds (dried for 48 hr, treated for 10 min): + (below the minimum detection level by direct plating (<0.7 log CFU/ml), but positive by enrichment culture.) | S. typhimurium DT 104 counts in seeds (dried for 48 hr, treated for 20 min): − | S. typhimurium DT 104 counts in seeds (dried for 48 hr, treated for 30 min): − | S. typhimurium DT 104 counts in seeds (dried for 48 hr, treated for 60 min): − | S. typhimurium DT 104 counts in seeds (dried for 72 hr, treated for 0 min): − | S. typhimurium DT 104 counts in seeds (dried for 72 hr, treated for 1 min): − | S. typhimurium DT 104 counts in seeds (dried for 72 hr, treated for 2 min): − | S. typhimurium DT 104 counts in seeds (dried for 72 hr, treated for 5 min): − | S. typhimurium DT 104 counts in seeds (dried for 72 hr, treated for 10 min): − | S. typhimurium DT 104 counts in seeds (dried for 72 hr, treated for 20 min): + (below the minimum detection level by direct plating (<0.7 log CFU/ml), but positive by enrichment culture.) | S. typhimurium DT 104 counts in seeds (dried for 72 hr, treated for 30 min): + (below the minimum detection level by direct plating (<0.7 log CFU/ml), but positive by enrichment culture.) | S. typhimurium DT 104 counts in seeds (dried for 72 hr, treated for 60 min): − | Salmonella detection after treatment (seeds dried for 4 hr, after 5 min of treatment): no detectable Salmonella | Salmonella detection after treatment (seeds dried for 24 hr, 48 hr, or 72 hr, treated for 5 min): levels only detectable by selective enrichment culture
